Read-outs that look alike come from different tables or passages of the source.
Target: T1, ACE-2 (Homo sapiens, UniProt Q9BYF1)
T1 construct: a stop codon inserted after the serine immediately preceding the transmembrane domain; made in house; host or cells: CHO K1 cells (transient transfection, purified from conditioned medium)
Experiment: ACE-2 Competitive Substrate Assay (ACS Assay)
Type: biochemical

[1] = Ki class per key, compounds tested in 5% DMSO, 12 compound concentrations, 25° C., Ki=Kiapp/(1+[S]/Km), read-out: Human ACE-2 Activity
[2] = Ki class, compounds tested in 5% DMSO, 12 compound concentrations, Ki=Kiapp/(1+[S]/Km), read-out: Human ACE-2 Activity
[3] = Table 3, very good ACE-2 inhibiting compounds, species not given, read-out: ACE-2 Activity, Ki
[4] = Ki class, compounds tested in 5% DMSO, 12 concentrations, read-out: Human ACE-2 Activity

T1 sequence (Q9BYF1 18-740 limits assumed): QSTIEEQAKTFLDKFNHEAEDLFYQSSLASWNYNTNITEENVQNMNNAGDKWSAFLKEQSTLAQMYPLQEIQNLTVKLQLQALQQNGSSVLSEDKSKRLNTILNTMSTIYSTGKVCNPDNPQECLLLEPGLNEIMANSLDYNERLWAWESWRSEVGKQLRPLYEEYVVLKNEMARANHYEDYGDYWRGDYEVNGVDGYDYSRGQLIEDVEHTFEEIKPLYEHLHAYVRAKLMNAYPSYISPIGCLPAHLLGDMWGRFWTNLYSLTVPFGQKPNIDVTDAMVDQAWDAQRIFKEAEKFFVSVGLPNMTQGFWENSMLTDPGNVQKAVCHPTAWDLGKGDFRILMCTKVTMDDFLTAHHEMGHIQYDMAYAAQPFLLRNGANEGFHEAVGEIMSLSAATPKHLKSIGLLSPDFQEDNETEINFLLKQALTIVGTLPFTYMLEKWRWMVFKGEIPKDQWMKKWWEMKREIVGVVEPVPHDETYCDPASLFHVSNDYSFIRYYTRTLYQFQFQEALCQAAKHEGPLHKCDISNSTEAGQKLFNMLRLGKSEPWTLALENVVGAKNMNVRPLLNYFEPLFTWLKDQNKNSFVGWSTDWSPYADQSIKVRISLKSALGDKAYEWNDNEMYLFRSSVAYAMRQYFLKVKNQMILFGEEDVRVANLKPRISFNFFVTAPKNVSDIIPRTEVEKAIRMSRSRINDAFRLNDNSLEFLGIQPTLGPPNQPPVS

Q: For `CC(C)C[C@H](N[C@@H](Cc1cc(-c2ccccc2Cl)on1)C(=O)O)C(=O)O` [QV, 2-[1-Carboxy-2-[5-(2-chloro-phenyl)-isoxazol-3-yl]-ethylamino]-4-methyl-pentanoic acid], which Ki [1] is on record?
A: < 100 nM

Q: `CC(C)C[C@H](N[C@@H](Cc1ccc(-c2cc(F)cc(F)c2)o1)C(=O)O)C(=O)O` [NU, (S,S)-2-{1-Carboxy-2-[5-(3,5-difluoro-phenyl)-furan-2-yl]-ethylamino}-4-methyl-pentanoic acid] was tested. Which Ki [2] did it give?
A: > 500 nM

Q: `CC(C)C[C@H](N[C@@H](Cc1ccc(OCc2ccccc2)cc1)C(=O)O)C(=O)O` [KQ, S,S-2-[2-(4-Benzyloxy-phenyl)-1-carboxy-ethylamino-]4-methyl-pentanoic acid] was tested. Which Ki [2] did it give?
A: 100 to 500 nM

Q: With `CC(C)C[C@H](N[C@@H](CC(=O)Nc1nc2ccccc2s1)C(=O)O)C(=O)O` [KV, 2-[2-(Benzothiazol-2-ylcarbamoyl)-1-carboxy-ethylamino]-4-methyl-pentanoic acid] as the molecule, how does the Ki [2] read?
A: < 100 nM

Q: What about the Ki [3] of the same molecule?
A: < 50 nM

Q: For `CC(C)C[C@H](N[C@@H](Cc1cncn1Cc1cc(F)cc(F)c1)C(=O)O)C(=O)O` [NJ, (S,S) 2-{1-Carboxy-2-[3-(3,5-difluoro-benzyl)-3H-imidazol-4-yl]-ethylamino}-4-methyl-pentanoic acid], which Ki [2] is on record?
A: < 100 nM

Q: And the Ki [3]?
A: < 50 nM

Q: What does the source list for `CC(C)C[C@H](N[C@@H](Cc1cccc(OCc2cccc(Cl)c2)c1)C(=O)O)C(=O)O` [OO, S,S-2-{1-Carboxy-2-[3-(3-chloro-benzyloxy)-phenyl]-ethylamino}-4-methyl-pentanoic acid]?
A: Ki [2]: < 100 nM; Ki [3]: 50 to 100 nM

Q: For `CC(C)C[C@H](N[C@@H](Cc1ccc(-n2cccc2)cc1)C(=O)O)C(=O)O` [PO, 2-[1-Carboxy-2-(4-pyrrol-1-yl-phenyl)-ethylamino]-4-methyl-pentanoic acid], which Ki [1] is on record?
A: > 500 nM

Q: What about the Ki [3] of the same molecule?
A: < 50 nM

Q: For `CC(C)C[C@H](N[C@@H](Cc1cncn1Cc1ccc(I)cc1)C(=O)O)C(=O)O` [NI, 2-[1-Carboxy-2-[3-(4-iodobenzyl)-3H-imidazol-4-yl]-ethylamino]-4-methyl-pentanoic acid], which Ki [2] is on record?
A: < 100 nM

Q: What about the Ki [3] of the same molecule?
A: < 50 nM

Q: With `CC(C)C[C@H](N[C@@H](Cc1ccc(Oc2cc(Cl)cc(Cl)c2)cc1)C(=O)O)C(=O)O` [QM] as the molecule, how does the Ki [1] read?
A: 100 to 500 nM

Q: With `CC(C)C[C@H](N[C@@H](CCNS(=O)(=O)c1ccc(-c2ccc(Cl)cc2)cc1)C(=O)O)C(=O)O` [KN, (S,S)-2-[1-Carboxy-3-(4′-chloro-biphenyl-4-sulfonylamino)-propylamino]-4-methyl-pentanoic acid] as the molecule, how does the Ki [2] read?
A: > 500 nM

Q: `O=C(O)[C@@H]1CCC[C@H](C(=O)O)N1` [H, Pipendine-2,6-dicarboxylic acid] was tested. Which Ki [4] did it give?
A: > 500 nM

Q: Which Ki [2] does the source give for `CC(C)C[C@H](N[C@@H](Cn1ccn([C@@H](C)c2ccccc2)c1=O)C(=O)O)C(=O)O` [LH, (S,S)-2-{1-Carboxy-2-[2-oxo-3-(1-phenyl-ethyl)-2,3-dihydro-imidazol-1-yl]-ethylamino}-4-methyl-pentanoic acid] here?
A: 100 to 500 nM

Q: Which Ki [2] does the source give for `CC(C)C[C@H](N[C@@H](Cc1ccc(OCc2ccncc2)cc1)C(=O)O)C(=O)O` [LV, 2-[1-Carboxy-2-[4-(pyridin4-ylmethoxy)-phenyl]-ethylamino]-4-methyl-pentanoic acid] here?
A: < 100 nM

Q: And the Ki [3]?
A: 50 to 100 nM

Q: `COc1ccc(-c2ccc(C[C@H](N[C@@H](CC(C)C)C(=O)O)C(=O)O)o2)cc1` [OI, (S,S)-2-{1-Carboxy-2-[5-(4-methoxy-phenyl)-furan-2-yl]-ethylamino}-4-methyl-pentanoic acid] was tested. Which Ki [2] did it give?
A: 100 to 500 nM

Q: For `CC(C)C[C@H](N[C@@H](Cc1ccc(C(=O)C(F)(F)F)n1CCC1CCCCC1)C(=O)O)C(=O)O` [QZ, 2-[1-Carboxy-2-[1-(2-cyclohexyl-ethyl)-5-(2,2,2-trifluoro-acetyl)-1H-pyrrol-2-yl]-ethylamino]-4-methylpentanoic acid], which Ki [1] is on record?
A: < 100 nM

Q: What about the Ki [3] of the same molecule?
A: < 50 nM

Q: Which results are given for `CCOc1ccnc(-c2ccc(C[C@H](N[C@@H](CC(C)C)C(=O)O)C(=O)O)cc2)c1Cl` [QB, (S,S)-2-{1-Carboxy-2-[4-(3-chloro-4-ethoxy-pyridin-2-yl)-phenyl]-ethylamino}-4-methyl pentanoic acid]?
A: Ki [1]: < 100 nM; Ki [3]: 50 to 100 nM

Q: How did the Ki [2] turn out when `CC(C)C[C@H](N[C@@H](Cn1ccn(CC2CCCCC2)c1=O)C(=O)O)C(=O)O` [NL, 2-[1-Carboxy-2-(3-cyclohexylmethyl-2-oxo-2,3-dihydro-imidazol-1-yl)-ethylamino]-4-methyl-pentanoic acid] was run?
A: 100 to 500 nM

Q: With `CC(C)C[C@H](N[C@@H](Cc1cccc(-c2ccsc2)c1)C(=O)O)C(=O)O` [MJ, (S,S)-2-[1-Carboxy-2-(3-thiophen-3-yl-phenyl)-ethylamino]-4-methyl-pentanoic acid] as the molecule, how does the Ki [2] read?
A: > 500 nM

Q: For `CC(C)C[C@H](N[C@@H](Cc1coc(-c2ccccc2)n1)C(=O)O)C(=O)O` [LM, (S,S)-2-[1-Carboxy-2-(2-phenyl-oxazol-4-yl)ethylamino]-4-methyl-pentanoic acid], which Ki [2] is on record?
A: > 500 nM

Q: Which Ki [1] does the source give for `CC(C)C[C@H](N[C@@H](Cc1ccc(C(=O)O)n1Cc1cc(Cl)cc(Cl)c1)C(=O)O)C(=O)O` [QY, 5-[2-Carboxy-2-(1-carboxy-3-methyl-butylamino)-ethyl]-1-(3,5-dichloro-benzyl)-1H-pyrrole-2-carboxylic acid] here?
A: < 100 nM

Q: What about the Ki [3] of the same molecule?
A: < 50 nM

Q: With `CC(C)CC(N[C@@H](Cc1cncn1Cc1cccc(F)c1F)C(=O)O)C(=O)O` (single isomer, unassigned) [IU, 2-[1-Carboxy-2-[3-(2,3-difluoro-benzyl)-3H-imidazol-4-yl]-ethylamino]4-methyl-pentanoic acid] as the molecule, how does the Ki [2] read?
A: < 100 nM

Q: And the Ki [3]?
A: 50 to 100 nM

Q: `CC(C)CC(N[C@@H](Cc1cncn1Cc1ccc(C(C)(C)C)cc1)C(=O)O)C(=O)O` (single isomer, unassigned) [HZ, 2-[2-[3-(4-tert-Butyl-benzyl)-3H-imidazol-4-yl]-1-carboxy-ethylamino]-4-methyl-pentanoic acid] was tested. Which Ki [2] did it give?
A: > 500 nM

Q: For `CC(C)C[C@H](N[C@@H](CC(=O)Nc1nc2cc(Cl)c(Cl)cc2s1)C(=O)O)C(=O)O` [MG, (S,S)-2-[1-Carboxy-2-(5,6-dichloro-benzothiazol-2-ylcarbamoyl)-ethylamino]-4-methyl-pentanoic acid], which Ki [2] is on record?
A: 100 to 500 nM

Q: Which Ki [2] does the source give for `COC(=O)[C@H](Cc1cccc(O)c1)N[C@@H](CC(C)C)C(=O)OCc1ccccc1` [LK, 2-[2-(3-Hydroxy-phenyl)-1-methoxycarbonyl-ethylamino]-4-methyl-pentanoic acidbenzyl ester] here?
A: > 500 nM

Q: Which Ki [2] does the source give for `CC(C)C[C@H](N[C@@H](Cc1cncn1Cc1cc(Cl)cc(Cl)c1)C(=O)OCc1ccccc1)C(=O)O` [LB, (S,S) 2-{1-Benzyloxycarbonyl-2-[3-(3,5-dichloro-benzyl)-3H-imidazol-4-yl]-ethylamino}-4-methyl-pentanoic acid] here?
A: > 500 nM

Q: `Cc1ccccc1Cn1cncc1C[C@H](NC(CC(C)C)C(=O)O)C(=O)O` (single isomer, unassigned) [HX, 2-[1-Carboxy-2-[3-(2-methyl-benzyl)-3H-imidazol-4-yl]-ethylamino]4-methyl-pentanoic acid] was tested. Which Ki [2] did it give?
A: > 500 nM

Q: `CC(C)C[C@H](N[C@@H](Cc1ccc(N(Cc2cc(F)cc(F)c2)Cc2cc(F)cc(F)c2)cc1)C(=O)O)C(=O)O` [RD, 2-(2-(4-[Bis-(3,5-difluoro-benzyl)-amino]-phenyl)-1-carboxy-ethylamino)-4-methyl-pentanoic acid] was tested. Which Ki [1] did it give?
A: 100 to 500 nM

Q: `CC(N[C@@H](Cc1ccccc1)C(=O)O)C(=O)O` (some centres unmarked) [O, 2-(1-Carboxy-ethylamino)-3-phenyl-propionic acid] was tested. Which Ki [4] did it give?
A: > 500 nM
